How the values were obtained:
Dabrafenib = compound: CC(C)(C)c1nc(-c2cccc(NS(=O)(=O)c3c(F)cccc3F)c2F)c(-c2ccnc(N)n2)s1 [Dabrafenib]; assay: relative viability (nuclei count vs DMSO), 5 days (fraction); higher = more cells survive
Outline: (§1)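 Lung cancer cell lines in 1536-well plates were kept overnight at 37 °C, then pinned with five library-drug doses (not always all listed) spaced by √10 on vehicle-anchored plates. After 5 days without medium change, cells were fixed, permeabilised and Hoechst-stained in one step, imaged at 4×, and nuclei were counted with MetaXpress. Viability is treated-well nuclei divided by vehicle-well nuclei, taken as the median over plates. Plates passed only with control CV below 25% and at least one doubling.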

VX-702 = compound: NC(=O)c1ccc(N(C(N)=O)c2c(F)cccc2F)nc1-c1ccc(F)cc1F [VX-702]; assay: as above
Outline: as §1

| Cell Line | relative viability (Dabrafenib; 0.003 µM) | relative viability (Dabrafenib; 0.009487 µM) | relative viability (Dabrafenib; 0.03 µM) | relative viability (Dabrafenib; 0.09487 µM) | relative viability (Dabrafenib; 0.3 µM) | relative viability (VX-702; 0.02 µM) | relative viability (VX-702; 0.2 µM) | relative viability (VX-702; 0.6325 µM) | relative viability (VX-702; 2 µM) |
| --- | --- | --- | --- | --- | --- | --- | --- | --- | --- |
| NCI-H1944 | 0.911 | 0.997 | 0.841 | 0.952 | 0.985 | 0.941 | 0.985 | 1.01 | 0.443 |
| NCI-H1975 | 0.936 | 0.982 | 0.925 | 0.778 | 0.854 | 0.97 | 0.923 | 1.08 | 1.22 |
| NCI-H1993 | 0.913 | 0.945 | 0.966 | 1.12 | 1.4 | 0.876 | 0.874 | 1.04 | 0.862 |
| NCI-H2009 | 0.883 | 0.974 | 0.894 | 0.625 | 0.628 | 1.23 | 1.15 | 1.2 | 1.26 |
| NCI-H2023 | 0.877 | 1.01 | 1.01 | 0.948 | 1.07 | 1.03 | 1.04 | 1.01 | 1.18 |
| NCI-H2085 | 0.846 | 1.06 | 1 | 0.999 | 1.09 | 1.06 | 1.05 | 1 | 0.99 |
| NCI-H2087 | – | 1.08 | 0.853 | 0.687 | 0.898 | 1.17 | 1.01 | 0.997 | 1.08 |
| NCI-H2126 | 0.875 | 1.06 | 0.994 | 1.02 | 1.08 | 1.03 | 0.963 | 1.02 | 0.954 |
| NCI-H2170 | 0.991 | 1.01 | 0.906 | 0.815 | 0.895 | 1.09 | 0.946 | 1.05 | 1 |
| NCI-H2228 | 0.864 | 0.987 | 0.994 | 0.902 | 0.944 | 1.11 | 1.06 | 0.84 | 1.08 |
| NCI-H2342 | 0.864 | 0.988 | 0.856 | 1.06 | 1.1 | 0.987 | 1.07 | 0.903 | 1.09 |
| NCI-H2347 | – | 1.07 | 0.877 | 0.811 | 0.89 | 1.05 | 1.1 | 1.04 | 1.01 |
| NCI-H2405 | – | 0.931 | 0.7 | 0.898 | 0.961 | 1.09 | 0.941 | 0.978 | 1.12 |
| NCI-H3122 | 0.981 | 1.05 | 1.09 | 0.991 | 1.06 | 1.01 | 0.979 | 1 | 1 |
| PC-3 [JPC-3] | 0.822 | 1.08 | 1.11 | 1.03 | 1.13 | 1.11 | 0.988 | 1.13 | 1.06 |
| PC-14 | 0.795 | 1.05 | 1.11 | 1.01 | 1.1 | 1.11 | 1.03 | 1.12 | 0.873 |
| RERF-LC-KJ | 1 | 1.15 | 0.969 | 0.986 | 1.1 | 0.989 | 1.03 | 1.01 | 1.03 |
| SK-LU-1 | – | 1.03 | 0.661 | 0.681 | 0.762 | 1.15 | 1.04 | 1.1 | 1.17 |
| SK-MES-1 | 0.81 | 1.08 | 1.03 | 0.954 | 0.934 | 0.998 | 0.966 | 0.944 | 0.999 |
| SW 1573 | 0.899 | 0.916 | 1.06 | 0.989 | 1.05 | 1.08 | 0.923 | 0.899 | 1.03 |
| UMC-11 | 1.04 | 0.988 | 0.855 | 0.997 | 0.956 | 0.923 | 0.857 | 0.82 | 1.12 |
